Earlier results as cited in patent US20190192601A1, “EXTRACTS OF CYCLANTHERA PEDATA AND FORMULATIONS AND USES THEREOF” (priority 2014, published 2019).

Legend:
[1] = in vivo

O=C(CCCN1CCN(c2ccc(F)cc2)CC1)NC1c2ccccc2CSc2ccccc21 (stereo not drawn) [Monatepil]
plasma lipid levels [1]: found to reduce

vitamin E
lower risk of heart disease (patients; supplementation with 30 IU to 100 IU): 41% | progression of coronary artery disease (patients; supplementation with 100 IU): reduced progression
